From paper PMC11500415, “Chemical inhibition of stomatal differentiation by perturbation of the master-regulatory bHLH heterodimer via an ACT-Like domain” (Nature Communications, 2024)
Several values for one entry are separate records, joined by “and”; a condition that tells them apart may be missing. Equal entries are not always repeated. Where two headings read alike, the source gives them in different places.

What was measured:
[1] = molecular target: T1, SPCH (Arabidopsis thaliana, UniProt Q700C7); assay: BLI direct binding; design: species or system A. thaliana
T1 construct: ΔNSPCH (98-364); made in house; host or cells: E. coli BL21
T1 sequence (Q700C7 98-364): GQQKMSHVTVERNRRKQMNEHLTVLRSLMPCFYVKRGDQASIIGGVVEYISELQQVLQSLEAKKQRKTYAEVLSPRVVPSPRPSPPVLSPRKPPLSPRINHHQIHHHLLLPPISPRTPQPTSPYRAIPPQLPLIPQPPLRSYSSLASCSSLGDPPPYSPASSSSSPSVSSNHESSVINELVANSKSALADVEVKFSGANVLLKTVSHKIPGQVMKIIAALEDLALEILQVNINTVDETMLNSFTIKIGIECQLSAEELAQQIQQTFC
Source text: (§1) A. thaliana SCRM (1-494), ΔNSPCH (98-364), MUTE (1-202), ΔNFAMA (190-414), MUTEΔC (1-114), MUTER133A_R134A, MUTEE162A_E163A, MUTER133A_R134A_E162A_E163A, SCRM-ACTL (405-494), MUTE-ACTL (114-202), SPCH-ACTL (285-364), FAMA-ACTL (306-414), MUTE_ACTLR133A_R134A, MUTE_ACTLE162A_E163A, MUTE_ACTLR133A_R134A_E162A_E163A were cloned into pGEX-4T-1 vector with an N-terminal GST tag and a thrombin cleavage sequence. For protein expression, the constructs were transformed into E. coli strain BL21. For each transformant, a single colony was selected and incubated in 10 ml LB liquid media. The overnight-incubated E. coli suspensions were transferred to 1 L LB medium and incubated at 37 °C for around 2 h until the OD600 reached 0.4–0.6. The isopropyl β-D-1-thiogalactopyranoside ([…] of final concentration) was added to the cultures and the strains were incubated at 22 °C for a further 18 h. GST-fused proteins were purified using glutathione agarose resin. The soluble portion of the cell lysate was loaded onto a GST-Sepharose column. Nonspecifically bound proteins were removed by washing the column with 20 mM Tris pH 8.0, 200 mM NaCl. The bound GST-fused protein was eluted with 10 mm glutathione and 20 mM Tris pH 8.0, 200 mM NaCl. The GST-fused proteins were exchanged with phosphate-buffered saline buffer, and then the solution was treated with 50 μg of thrombin for 10–12 h at 16 ^οC. The GST portion of the protein was cleaved during thrombin digestion, and then the whole solution was reloaded onto the glutathione S-transferase column to obtain pure protein. The purified proteins were further purified by gel filtration on a Superdex-200 (GE) column using fast protein liquid chromatography and phosphate buffer (pH 7.2) as the eluent. The purity of the protein was checked by SDS-PAGE. For detailed lists of oligo DNA and plasmid information, see Supplementary Tables 5, 6, respectively.
(§2) The binding affinities of SCRM to MUTE / MUTER133A_R134A / MUTEE162A_E163A / MUTER133A_R134A_E162A_E163A in presence and absence of Stomidazolone (3) and its analogues (AYSJ1059 (5) and AYSJ1061 (6)), and Stomidazolone / AYSJ1059 / AYSJ1061 interactions with GST-tagged SCRM, MUTE, SPCH, FAMA, MUTE ΔACTL, MUTE_ACTL, SCRM_ACTL, SPCH_ACTL and FAMA_ACTL, MUTER133A_134A, MUTEE162A_E163A, MUTER133A_R134A_E162A_E163A were measured using the Octet Red96 system (ForteBio, Pall Life Sciences) following the manufacturer’s protocols. The optical probes coated with anti-GST were first loaded with 500 nM GST tagged proteins before kinetic binding analyses. The experiment was performed in 96-well plates maintained at 30 °C. Each well was loaded with 200 μL reaction volume for the experiment. The binding buffer used in these experiments contained 1× PBS supplemented with 2% DMSO, 0.02% Tween20. […] There was no binding of the analytes to the unloaded probes as shown by the control wells. Binding kinetics to all seven concentrations of the analytes were measured simultaneously using default parameters on the instrument. The data were analyzed using the Octet data analysis software. The association and dissociation curves were fit with the 1:1 homogeneous ligand model. The kobs (observed rate constant) values were used to calculate Kd, with steady-state analysis of the direct binding. See Supplementary Table 3 for details.

[2] = molecular target: T2, SCRM (Arabidopsis thaliana, UniProt Q9LSE2); assay: BLI direct binding; design: species or system A. thaliana
T2 construct: SCRM (1-494); made in house; host or cells: E. coli BL21
T2 sequence (Q9LSE2 1-494): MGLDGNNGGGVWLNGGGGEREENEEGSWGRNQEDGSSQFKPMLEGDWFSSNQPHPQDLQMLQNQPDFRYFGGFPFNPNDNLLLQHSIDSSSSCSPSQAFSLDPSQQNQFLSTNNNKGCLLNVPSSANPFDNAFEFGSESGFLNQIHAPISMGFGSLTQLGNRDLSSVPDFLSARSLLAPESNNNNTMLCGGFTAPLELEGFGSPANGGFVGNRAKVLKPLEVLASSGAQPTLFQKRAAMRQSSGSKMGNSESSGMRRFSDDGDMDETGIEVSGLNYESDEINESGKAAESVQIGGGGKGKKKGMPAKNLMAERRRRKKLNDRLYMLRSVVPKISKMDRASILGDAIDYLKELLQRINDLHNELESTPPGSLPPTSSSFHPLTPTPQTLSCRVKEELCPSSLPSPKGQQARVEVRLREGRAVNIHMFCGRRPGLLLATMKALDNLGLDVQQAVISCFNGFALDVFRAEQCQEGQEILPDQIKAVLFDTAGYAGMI
Source text: as §1, §2

[3] = SPCH, Conc. (µM) 3.12, rep-1, rep-2
[4] = SPCH, Conc. (µM) 6.25, rep-1, rep-2
[5] = SPCH, Conc. (µM) 12.5, rep-1, rep-2
[6] = SPCH, Conc. (µM) 50, rep-1, rep-2
[7] = SPCH, Conc. (µM) 100, rep-1, rep-2
[8] = SPCH, Conc. (µM) 200, rep-1, rep-2

In the case of `O=C1C(c2ccccc2)=NC(NS(=O)(=O)c2ccccc2)(c2ccccc2)N1S(=O)(=O)c1ccccc1` (stereo not shown) [Stomidazolone], the Kd ([1]; BLI steady state, SPCH, read-out: KD (SS)) is reported as 85.2 ± 6.8 µM, the Kd ([1]; BLI, SPCH, read-out: KD) is reported as 75.6 ± 0.7 µM and the “kdis” value ([1]; SPCH loaded on Anti-GST sensor, fit per sensor, Stomid Conc. (mM) 200-3.12, rep-1, rep-2) is reported as 0.319 s⁻¹ and 0.323 s⁻¹ and 0.32 s⁻¹ and 0.325 s⁻¹ and 0.33 s⁻¹ and 0.326 s⁻¹. The “kon” value ([1]; SPCH loaded on Anti-GST sensor, fit per sensor, Stomid Conc. (µM) 200-3.12, rep-1, rep-2) was 4280 M⁻¹ s⁻¹ and 4310 M⁻¹ s⁻¹ and 4320 M⁻¹ s⁻¹ and 4400 M⁻¹ s⁻¹ and 4290 M⁻¹ s⁻¹ and 4340 M⁻¹ s⁻¹ and 4360 M⁻¹ s⁻¹, the Kd ([1]; SPCH loaded on Anti-GST sensor, fit per sensor, Stomid Conc. (µM) 200-3.12, rep-1, rep-2, read-out: KD) was 75.4 µM and 76.8 µM and 74.1 µM and 73.1 µM and 74.8 µM and 72.6 µM and 75.2 µM and 76.7 µM and 76.9 µM and 74.4 µM and the RMax [1, 3] was 0.03 and 0.0213. For the same compound, the “Req/Rmax(%)” value [1, 3] was 100%, the Response [1, 3] was 0.0312 and 0.0213 and the RMax [1, 4] was 0.062 and 0.0321. The “Req/Rmax(%)” value [1, 4] was 97% and 100%, the Response [1, 4] was 0.0608 and 0.0321 and the RMax [1, 5] was 0.067 and 0.0781. The Response [1, 5] was 0.065 and 0.0781, the RMax [1, 6] was 0.135 and 0.1621 and the “Req/Rmax(%)” value [1, 6] was 89%. The Response [1, 6] was 0.1334 and 0.1621, the RMax [1, 7] was 0.235 and 0.2711 and the Response [1, 7] was 0.233 and 0.2711. For the same compound, the RMax [1, 8] was 0.335 and 0.323, the “Req/Rmax(%)” value [1, 8] was 98% and the Response [1, 8] was 0.3311 and 0.323. It also gave a koff ([1]; read-out: kdis(1/s), SPCH loaded on Anti-GST sensor, fit per sensor, Stomid Conc. (mM) 200-3.12, rep-1, rep-2) of 0.329 s⁻¹, a kon ([1]; read-out: kon(1/Ms), SPCH loaded on Anti-GST sensor, fit per sensor, Stomid Conc. (mM) 200-3.12, rep-1, rep-2) of 4370 M⁻¹ s⁻¹ and a Kd ([2]; BLI steady state, read-out: KD (SS)) of 68.5 ± 5.6 µM. It also gave a Kd ([2]; BLI, read-out: KD) of 65.5 ± 0.6 µM.
